Data from patent US12180193B2, “Accelerating fibrosarcoma protein degrading compounds and associated methods of use” (Arvinas Operations, Inc., priority 2020, dated 2024).

Assays:
[1] = molecular target: T1, BRAF V600E (Homo sapiens, UniProt P15056, V600E); experiment: Cellular assay of target protein degradation, T-Rex 293 cells stably transfected with HA-BRAF_V600E (HA immunofluorescence, high content imaging); format: cell-based; conditions: T-Rex 293 HA-BRAF V600E; for DC50: half maximal degradation, read-out: BRaf V600E DC50; for Dmax: maximum degradation observed
T1 construct: expressed in transfected cells
T1 sequence (P15056 whole entry V600E): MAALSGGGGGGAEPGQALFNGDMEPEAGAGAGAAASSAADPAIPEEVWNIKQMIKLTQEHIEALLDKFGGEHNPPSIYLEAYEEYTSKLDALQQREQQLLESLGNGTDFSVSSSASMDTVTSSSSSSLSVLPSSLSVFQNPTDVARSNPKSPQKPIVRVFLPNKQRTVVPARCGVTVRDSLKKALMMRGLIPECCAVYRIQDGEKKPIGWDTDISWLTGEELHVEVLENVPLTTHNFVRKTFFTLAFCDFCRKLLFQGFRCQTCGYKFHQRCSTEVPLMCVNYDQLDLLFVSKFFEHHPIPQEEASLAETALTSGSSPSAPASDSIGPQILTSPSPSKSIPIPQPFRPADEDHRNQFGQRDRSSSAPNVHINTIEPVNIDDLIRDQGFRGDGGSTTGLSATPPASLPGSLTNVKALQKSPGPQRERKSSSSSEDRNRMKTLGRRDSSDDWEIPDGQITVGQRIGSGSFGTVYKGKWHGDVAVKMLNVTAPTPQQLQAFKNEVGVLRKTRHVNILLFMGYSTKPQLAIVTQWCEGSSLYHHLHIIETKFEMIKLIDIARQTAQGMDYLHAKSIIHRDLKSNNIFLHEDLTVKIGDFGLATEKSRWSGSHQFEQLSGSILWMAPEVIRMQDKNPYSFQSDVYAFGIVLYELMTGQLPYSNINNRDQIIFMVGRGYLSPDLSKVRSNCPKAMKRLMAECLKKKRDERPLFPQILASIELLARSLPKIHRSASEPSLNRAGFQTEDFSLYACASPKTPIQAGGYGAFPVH
Procedure, shortened: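 24 h compound exposure, 1 μM–0.1 nM final, 0.1% DMSO, 37 °C; cells induced with 1 ng/mL doxycycline. PFA fix, Triton permeabilize, anti-HA overnight 4 °C, Hoechst/phalloidin counterstain. Output: DC50, Dmax as % control.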

[2] = molecular target: T2, BRAF G466V (Homo sapiens, UniProt P15056, G466V); experiment: Cellular assay of target protein degradation, T-Rex 293 cells stably transfected with HA-BRAF G466V (HA immunofluorescence, high content imaging); format: cell-based; conditions: T-Rex 293 HA-BRAF G466V; for DC50: half maximal degradation, read-out: BRaf G466V DC50; for Dmax: maximum degradation observed
T2 construct: expressed in transfected cells
T2 sequence (P15056 whole entry G466V): as the sequence (P15056 whole entry V600E) above, with G466V, E600V counted along it
Procedure, shortened: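 24 h compound, 30 nM–3 pM final, 0.1% DMSO, 37° C; HA-BRAF G466V induced with 0.75 ng/mL doxycycline. PFA fix, Triton perm, anti-HA + Alexa fluor secondary, Hoechst/phalloidin counterstain; imaging. DC50, Dmax (% of control).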

| Structure (SMILES) | DC50 [1] | Dmax [1] | DC50 [2] | Dmax [2] |
| --- | --- | --- | --- | --- |
| O=C1CC[C@@H](N2Cc3cc(C[C@@H](O)CN4CCC(c5ccc(-c6cnc7[nH]cc(C(=O)c8c(F)ccc(NS(=O)(=O)N9CC[C@@H](F)C9)c8F)c7c6)cc5)CC4)ccc3C2=O)C(=O)N1 [Compound 108, (3R)-N-{3-[5-(4-{1-[(2R)-3-{2-[(3R)-2,6-dioxopiperidin-3-yl]-1-oxo-2,3-dihydro-1H-isoindol-5-yl}-2-hydroxypropyl]piperidin-4-yl}phenyl)-1H-pyrrolo[2,3-b]pyridine-3-carbonyl]-2,4-difluorophenyl}-3-fluoropyrrolidine-1-sulfonamide] | 0.005 to 0.05 µM | 35 to 70% | 0.001 to 0.01 µM | > 70% |
| O=C1CCC(N2Cc3cc(C4CCN(CC5CCN(c6ccc(-c7cnc8[nH]cc(C(=O)c9c(F)ccc(NS(=O)(=O)N%10CC[C@@H](F)C%10)c9C(F)(F)F)c8c7)cc6)CC5)CC4)ccc3C2=O)C(=O)N1 (stereo partly drawn) [Compound 273, (3R)-N-[3-(5-{4-[4-({4-[2-(2,6-dioxopiperidin-3-yl)-1-oxo-2,3-dihydro-1H-isoindol-5-yl]piperidin-1-yl}methyl)piperidin-1-yl]phenyl}-1H-pyrrolo[2,3-b]pyridine-3-carbonyl)-4-fluoro-2-(trifluoromethyl)phenyl]-3-fluoropyrrolidine-1-sulfonamide] | > 0.5 µM | 35 to 70% | 0.01 to 0.03 µM | 35 to 70% |
| O=C1CCC(N2Cc3cc(CCCN4CC5(C4)CN(c4ccc(-c6cnc7[nH]cc(C(=O)c8c(F)ccc(NS(=O)(=O)N9CCC(F)(F)C9)c8F)c7c6)cc4)C5)ccc3C2=O)C(=O)N1 (centres unmarked) [Compound 248, N-(3-{5-[4-(6-{3-[2-(2,6-dioxopiperidin-3-yl)-1-oxo-2,3-dihydro-1H-isoindol-5-yl]propyl}-2,6-diazaspiro[3.3]heptan-2-yl)phenyl]-1H-pyrrolo[2,3-b]pyridine-3-carbonyl}-2,4-difluorophenyl)-3,3-difluoropyrrolidine-1-sulfonamide] | 0.005 to 0.05 µM | 35 to 70% | 0.001 to 0.01 µM | > 70% |
| O=C1CC[C@H](NC(=O)c2ccc(N3CCN(CCc4ccc(-c5cnc6[nH]cc(C(=O)c7c(F)ccc(NS(=O)(=O)N8CC[C@@H](F)C8)c7F)c6c5)cc4)CC3)cc2F)C(=O)N1 [Compound 27, 4-[4-[2-[4-[3-[2,6-difluoro-3-[[(3R)-3-fluoropyrrolidin-1-yl]sulfonylamino]benzoyl]-1H-pyrrolo[2,3-b]pyridin-5-yl]phenyl]ethyl]piperazin-1-yl]-N-[(3S)-2,6-dioxo-3-piperidyl]-2-fluoro-benzamide] | 0.005 to 0.05 µM | > 70% | 0.001 to 0.01 µM | 35 to 70% |
| O=C1CCC(NC(=O)c2ccc(C3CCN(CC4CCN(c5ncc(-c6cnc7[nH]cc(C(=O)c8c(F)ccc(NS(=O)(=O)N9CC[C@@H](F)C9)c8F)c7c6)cn5)CC4)CC3)cc2F)C(=O)N1 (stereo partly drawn) [Compound 376, 4-(1-{[1-(5-{3-[2,6-difluoro-3-({[(3R)-3-fluoropyrrolidin-1-yl]sulfonyl}amino)benzoyl]-1H-pyrrolo[2,3-b]pyridin-5-yl}pyrimidin-2-yl)piperidin-4-yl]methyl}piperidin-4-yl)-N-(2,6-dioxopiperidin-3-yl)-2-fluorobenzamide] | 0.05 to 0.5 µM | 35 to 70% | 0.001 to 0.01 µM | 35 to 70% |
| O=C1CCC(N2Cc3cc([C@H](O)CN4CC5(C4)CN(c4ccc(-c6cnc7[nH]cc(C(=O)c8c(F)ccc(NS(=O)(=O)N9CC[C@@H](F)C9)c8F)c7c6)cc4)C5)ccc3C2=O)C(=O)N1 (stereo partly drawn) [Compound 299, (3R)-N-{3-[5-(4-{6-[(2S)-2-[2-(2,6-dioxopiperidin-3-yl)-1-oxo-2,3-dihydro-1H-isoindol-5-yl]-2-hydroxyethyl]-2,6-diazaspiro[3.3]heptan-2-yl}phenyl)-1H-pyrrolo[2,3-b]pyridine-3-carbonyl]-2,4-difluorophenyl}-3-fluoropyrrolidine-1-sulfonamide] | 0.005 to 0.05 µM | 35 to 70% | 0.001 to 0.01 µM | > 70% |
| COc1cc([C@@H](O)CCN2CCN(c3ccc(-c4cnc5[nH]cc(C(=O)c6c(F)ccc(NS(=O)(=O)N7CC[C@@H](F)C7)c6F)c5c4)cc3)CC2)cc2c1C(=O)N([C@@H]1CCC(=O)NC1=O)C2 [Compound 296, (3R)-N-{3-[5-(4-{4-[(3S)-3-{2-[(3R)-2,6-dioxopiperidin-3-yl]-7-methoxy-1-oxo-2,3-dihydro-1H-isoindol-5-yl}-3-hydroxypropyl]piperazin-1-yl}phenyl)-1H-pyrrolo[2,3-b]pyridine-3-carbonyl]-2,4-difluorophenyl}-3-fluoropyrrolidine-1-sulfonamide] | 0.05 to 0.5 µM | 35 to 70% | 0.001 to 0.01 µM | 35 to 70% |
| C[C@H]1CC[C@H](C)N1S(=O)(=O)Nc1ccc(F)c(C(=O)c2c[nH]c3ncc(-c4ccc(N5CCC(CN6CCC(c7ccc8c(c7)CN(C7CCC(=O)NC7=O)C8=O)CC6)CC5)cc4)cc23)c1F (stereo partly drawn) [Compound 263, (2S,5S)-N-[3-(5-{4-[4-({4-[2-(2,6-dioxopiperidin-3-yl)-1-oxo-2,3-dihydro-1H-isoindol-5-yl]piperidin-1-yl}methyl)piperidin-1-yl]phenyl}-1H-pyrrolo[2,3-b]pyridine-3-carbonyl)-2,4-difluorophenyl]-2,5-dimethylpyrrolidine-1-sulfonamide] | 0.05 to 0.5 µM | < 35% | 0.001 to 0.01 µM | 35 to 70% |
| CNc1cc(-c2cnc3[nH]cc(C(=O)c4c(F)ccc(NS(=O)(=O)N5CC[C@@H](F)C5)c4F)c3c2)ccc1N1CCC(CN2CCC(c3ccc4c(c3)CN([C@H]3CCC(=O)NC3=O)C4=O)CC2)CC1 [Compound 210, (3R)—N-{3-[5-(4-{4-[(4-{2-[(3S)-2,6-dioxopiperidin-3-yl]-1-oxo-2,3-dihydro-1H-isoindol-5-yl}piperidin-1-yl)methyl]piperidin-1-yl}-3-(methylamino)phenyl)-1H-pyrrolo[2,3-b]pyridine-3-carbonyl]-2,4-difluorophenyl}-3-fluoropyrrolidine-1-sulfonamide] | 0.005 to 0.05 µM | 35 to 70% | 0.001 to 0.01 µM | > 70% |
| O=C1CC[C@H](N2Cc3cc(C[C@@H](O)CN4CCC(c5ccc(-c6cnc7[nH]cc(C(=O)c8c(F)ccc(NS(=O)(=O)N9CC[C@@H](F)C9)c8F)c7c6)cc5)CC4)ccc3C2=O)C(=O)N1 [Compound 107] | 0.005 to 0.05 µM | 35 to 70% | 0.001 to 0.01 µM | 35 to 70% |
| O=C1CC[C@H](N2Cc3cc(C[C@@H](O)CN4CC5(C4)CN(c4ccc(-c6cnc7[nH]cc(C(=O)c8c(F)ccc(NS(=O)(=O)N9CC[C@@H](F)C9)c8F)c7c6)cc4)C5)ccc3C2=O)C(=O)N1 [Compound 128, (3R)-N-{3-[5-(4-{6-[(2R)-3-{2-[(3S)-2,6-dioxopiperidin-3-yl]-1-oxo-2,3-dihydro-1H-isoindol-5-yl}-2-hydroxypropyl]-2,6-diazaspiro[3.3]heptan-2-yl}phenyl)-1H-pyrrolo[2,3-b]pyridine-3-carbonyl]-2,4-difluorophenyl}-3-fluoropyrrolidine-1-sulfonamide] | 0.005 to 0.05 µM | 35 to 70% | 0.001 to 0.01 µM | > 70% |
| COc1ccc(NS(=O)(=O)N2CC[C@@H](F)C2)c(OC)c1C(=O)c1c[nH]c2ncc(-c3ccc(N4CCC(CN5CCC(c6ccc7c(c6)CN(C6CCC(=O)NC6=O)C7=O)CC5)CC4)cc3)cc12 (stereo partly drawn) [Compound 275, (3R)-N-[3-(5-{4-[4-({4-[2-(2,6-dioxopiperidin-3-yl)-1-oxo-2,3-dihydro-1H-isoindol-5-yl]piperidin-1-yl}methyl)piperidin-1-yl]phenyl}-1H-pyrrolo[2,3-b]pyridine-3-carbonyl)-2,4-dimethoxyphenyl]-3-fluoropyrrolidine-1-sulfonamide] | > 0.5 µM |  | > 0.03 µM |  |
| O=C1CCC(N2Cc3cc(N4CC(N5C[C@H]6C[C@@H]5CN6c5ccc(-c6cnc7[nH]cc(C(=O)c8c(F)ccc(NS(=O)(=O)N9CC[C@@H](F)C9)c8F)c7c6)cc5)C4)ccc3C2=O)C(=O)N1 (stereo partly drawn) [Compound 5, (3R)-N-[3-(5-{4-[(1R,4R)-5-{1-[2-(2,6-dioxopiperidin-3-yl)-1-oxo-2,3-dihydro-1H-isoindol-5-yl]azetidin-3-yl}-2,5-diazabicyclo[2.2.1]heptan-2-yl]phenyl}-1H-pyrrolo[2,3-b]pyridine-3-carbonyl)-2,4-difluorophenyl]-3-fluoropyrrolidine-1-sulfonamide] | > 0.5 µM |  | 0.001 to 0.01 µM | 35 to 70% |
| O=C1CC[C@@H](N2Cc3cc([C@@H](O)CCN4CCN(c5ccc(-c6cnc7[nH]cc(C(=O)c8c(F)ccc(NS(=O)(=O)N9CC[C@@H](F)C9)c8F)c7c6)cc5)CC4)c(F)cc3C2=O)C(=O)N1 [Compound 301, (3R)-N-{3-[5-(4-{4-[(3S)-3-{2-[(3R)-2,6-dioxopiperidin-3-yl]-6-fluoro-1-oxo-2,3-dihydro-1H-isoindol-5-yl}-3-hydroxypropyl]piperazin-1-yl}phenyl)-1H-pyrrolo[2,3-b]pyridine-3-carbonyl]-2,4-difluorophenyl}-3-fluoropyrrolidine-1 sulfonamide] | 0.05 to 0.5 µM | 35 to 70% | < 0.001 µM | > 70% |
